Measurements reported in ChEMBL document CHEMBL1152343, “2-Arylbenzofuran Derivatives from Morus cathayana” (J Nat Prod, 2009).
≈ marks a conversion by molar mass, not a printed value.

Legend:
Type in all cases: functional, cell-based
HCT-8 = test: Cytotoxicity against human HCT8 […] by MTT assay
A2780 = test: Cytotoxicity against human A2780 […] by MTT assay
BGC-823 = test: Cytotoxicity against human BGC823 […] by MTT assay
A549 = test: Cytotoxicity against human A549 […] by MTT assay

Row | SMILES | IC50 (HCT-8) [µg/mL] | IC50 (A2780) [µg/mL] | IC50 (BGC-823) [µg/mL] | IC50 (A549) [µg/mL]
1 | CC(C)=CCc1c(O)cc2c(c1-c1cc3ccc(O)cc3o1)C=CC(C)(C)O2 [CATHAFURAN C] | 7.33 (≈ 19.5 µM) | 7.61 (≈ 20.2 µM) |  | 
2 | O=c1[nH]cc(F)c(=O)[nH]1 [FLUOROURACIL] | 0.2 (≈ 1.54 µM) | 0.2 (≈ 1.54 µM) | 0.2 (≈ 1.54 µM) | 0.2 (≈ 1.54 µM)
3 | CC(C)=CCc1c(O)cc(O)cc1-c1cc2ccc(O)c(CC=C(C)C)c2o1 [CATHAFURAN B] | 6.27 (≈ 16.6 µM) | 6.27 (≈ 16.6 µM) | 6.27 (≈ 16.6 µM) | 6.27 (≈ 16.6 µM)
